From patent US20200172483A1, “HETEROCYCLIC SMALL MOLECULE MODULATORS OF HUMAN STING” (Curadev Pharma Limited, priority 2017, published 2020)
Where two headings read alike, the source gives them in different places.

How the values were obtained:
IRF pathway = assay: Reporter gene expression assay for IRF axis in THP1-Dual cells (secreted Lucia luciferase); format: cell-based, human; settings: 20 hr stimulation, QUANTI-Luc, EC50 range, read-out: THP-IRF activity
Description: (§1) THP1-Dual™ cells (Invivogen) were derived from the human THP-1 monocyte cell line by stable integration of two inducible reporter constructs. As a result, THP1-Dual™ cells allow the simultaneous study of the NF-κB pathway, by monitoring the activity of secreted SEAP, and the IRF pathway, by assessing the activity of a secreted luciferase (Lucia). […] THP1-Dual™ cells were seeded in 384-well plates in growth medium and stimulated with novel compounds. After 20 hr of stimulation supernatant were removed and reporter proteins were readily measured in the cell culture supernatant using QUANTI-Blue™ (Invivogen), a SEAP detection reagent, and QUANTI-Luc™ (Invivogen), a luciferase detection reagent on a Spectramax i3X luminometer. EC50 value ranges for exemplary compounds tested in the above assay are given.

NF-κB pathway = assay: Reporter gene expression assay for NFκB axis in THP1-Dual cells (secreted SEAP); format: cell-based, human; settings: 20 hr stimulation, QUANTI-Blue SEAP, EC50 range, read-out: THP-NFKB activity
Description: as §1

WT/R232 STING protein = molecular target: T1, WT/R232 STING protein (Homo sapiens, UniProt Q86WV6, H232R); assay: Luciferase reporter assay in HEK293T-hSTING-Luciferase cells (R232); format: cell-based; settings: 20 hr stimulation, EC50 range
T1 construct: host or cells: HEK293T
Procedure, shortened: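 Clonal HEK293T cells stably expressing human STING R232 plus an ISRE/ISG54-driven secreted luciferase reporter, stimulated with compounds for 20 hr. Luciferase in supernatant read by luminescence; activity given as fold-induction over baseline.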

hSTING (H232) = molecular target: T2, hSTING (H232) (Homo sapiens, UniProt Q86WV6); assay: Luciferase reporter assay in HEK293T-hSTING-Luciferase cells (H232/REF polymorph); format: cell-based; settings: EC50 range
T2 construct: host or cells: HEK293T
Description: (§2) • a) Stable STING expressing cells—Stable HEK293T STING-expressing cell lines were generated using plasmids purchased from Invivogen, CA, USA, that contain STING cDNA cloned into the pUNO-1 vector under hEF1-HTLV promoter and containing the Blasticidin selection cassette. The plasmids hSTING (R232), hSTING (H232), hSTING (HAQ) were directly procured from Invivogen while hSTING (AQ) and hSTING (Q) were derived from hSTING (HAQ) and hSTING (R232) plasmids respectively by using a PCR based site directed mutagenesis method. These vectors were individually transfected into HEK293T cells using Lipofectamine (Invitrogen) and transfected cells were selected under Blasticidin selection. These transfected cells were further subjected to clonal selection using the limiting dilution method to obtain clonally pure populations of HEK cells transfected with each of the above mentioned human STING variants. Only those clones were selected in which ligand independent activation of STING was minimal. • b) Stable Luciferase reporter gene expressing cells—Stable HEK293T Luciferase reporter gene expressing cell lines were generated using pCDNA4 plasmids under an IRF-inducible promoter. This promoter is comprised of five tandem interferon-stimulated response elements (ISRE) fused to an ISG54 minimal promoter. This vector was transfected into HEK293T cells using Lipofectamine (Invitrogen) and transfected cells were selected under Zeocin selection. These transfected cells were further subjected to clonal selection using the limiting dilution method to obtain clonally pure populations of HEK cells transfected the Luciferase reporter construct. Only those clones were selected in which ligand independent induction of luciferase was minimal.
(§3) 5×10^5 clonally selected HEK293T-hSTING-Luciferase cells were seeded in 384-well plates in growth medium and stimulated with novel compounds. After 20 hr of stimulation supernatant were removed and secretary reporter gene activity were measured using the Quanti-Luc detection system (Invivogen) on a Spectramax i3X luminometer.
(§4) The 5 major polymorphisms of human STING are shown in FIG. 1, with their prevalence in human populations indicated.

hSTING (HAQ) = molecular target: T3, hSTING (HAQ) (Homo sapiens, UniProt Q86WV6, G230A/H232R/R293Q/R71H); assay: Luciferase reporter assay in HEK293T-hSTING-Luciferase cells (HAQ polymorph); format: cell-based; settings: EC50 range
T3 construct: host or cells: HEK293T
Description: as §2, §3, §4

T3 sequence (Q86WV6 whole entry R71H/G230A/H232R/R293Q): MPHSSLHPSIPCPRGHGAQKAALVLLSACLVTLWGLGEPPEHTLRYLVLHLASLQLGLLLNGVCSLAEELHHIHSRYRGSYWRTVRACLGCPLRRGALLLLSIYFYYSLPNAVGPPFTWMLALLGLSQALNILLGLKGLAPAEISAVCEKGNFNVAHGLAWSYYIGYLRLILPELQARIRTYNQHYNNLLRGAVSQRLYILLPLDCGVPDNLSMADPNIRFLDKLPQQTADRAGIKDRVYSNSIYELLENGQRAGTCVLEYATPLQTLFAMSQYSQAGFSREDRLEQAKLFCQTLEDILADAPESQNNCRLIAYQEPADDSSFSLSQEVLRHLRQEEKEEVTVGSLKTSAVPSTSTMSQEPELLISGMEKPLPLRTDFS
T1 sequence (Q86WV6 whole entry H232R): as the sequence (Q86WV6 whole entry R71H/G230A/H232R/R293Q) above, with H71R, A230G, Q293R counted along it
T2 sequence (Q86WV6 whole entry): as the sequence (Q86WV6 whole entry R71H/G230A/H232R/R293Q) above, with H71R, A230G, R232H, Q293R counted along it

| EC50 (IRF pathway) [µM] | EC50 (NF-κB pathway) [µM] | EC50 (WT/R232 STING protein) [nM] | EC50 (hSTING (H232)) [nM] | EC50 (hSTING (HAQ)) [nM] | EC50 (IRF pathway; Homo sapiens, THP1-Dual, 20 h) [µM] | EC50 (NF-κB pathway; Homo sapiens, THP1-Dual, 20 h) [µM] | SMILES |
| --- | --- | --- | --- | --- | --- | --- | --- |
| 1 to 10 | 1 to 10 |  |  |  |  |  | CC1(C#N)C(=O)N(Cc2cc(F)cc(F)c2)c2cc(C(=O)NCc3c(F)cc(F)cc3F)ccc21 (centres unmarked) [Example 167, 3-cyano-1-(3,5-difluorobenzyl)-3-methyl-2-oxo-N-(2,4,6-trifluorobenzyl)indoline-6-carboxamide] |
|  |  | ≤ 1000 | ≤ 1000 | ≤ 1000 | 1 to 10 | 1 to 10 | CC1(C)C(=O)N(Cc2c(F)cccc2Cl)c2cc(C(=O)NCc3cc4cc(F)ccc4o3)ccc21 [Example 75, 1-(2-chloro-6-fluorobenzyl)-N-((5-fluorobenzofuran-2-yl)methyl)-3,3-dimethyl-2-oxoindoline-6-carboxamide] |
|  |  | ≤ 1000 | 1000 to 10000 | ≤ 1000 | 1 to 10 | 1 to 10 | CC1(C)C(=O)N(Cc2c(F)cccc2Cl)c2cc(C(=O)NCc3c(F)cccc3F)ccc21 [Example 27, 1-(2-chloro-6-fluorobenzyl)-N-(2,6-difluorobenzyl)-3,3-dimethyl-2-oxoindoline-6-carboxamide] |
|  |  | 1000 to 10000 | 1000 to 10000 | 1000 to 10000 | > 10 | > 10 | Cc1ccc(CNC(=O)c2ccc3c(c2)N(Cc2c(F)cccc2F)C(=O)C3(C)C)o1 [Example 50, 1-(2,6-difluorobenzyl)-3,3-dimethyl-N-((5-methylfuran-2-yl)methyl)-2-oxoindoline-6-carboxamide] |
|  |  | ≤ 1000 | 1000 to 10000 | 1000 to 10000 | 1 to 10 | 1 to 10 | CC1(C)C(=O)N(Cc2c(F)cccc2Cl)c2cc(C(=O)NCc3ccc4ccoc4c3)ccc21 [Example 90, N-(benzofuran-6-ylmethyl)-1-(2-chloro-6-fluorobenzyl)-3,3-dimethyl-2-oxoindoline-6-carboxamide] |
|  |  | ≤ 1000 | 1000 to 10000 | 1000 to 10000 | 1 to 10 | 1 to 10 | Cc1nn(CCO)c(CN2C(=O)C(C)(C)c3ccc(C(=O)NCc4cc5cc(F)ccc5o4)cc32)c1F [Example 119, 1-((4-fluoro-1-(2-hydroxyethyl)-3-methyl-1H-pyrazol-5-yl)methyl)-N-((5-fluorobenzofuran-2-yl)methyl)-3,3-dimethyl-2-oxoindoline-6-carboxamide] |
|  |  | ≤ 1000 | ≤ 1000 | 1000 to 10000 | > 10 | > 10 | CC1(C)C(=O)N(Cc2noc3ccccc23)c2cc(C(=O)NCc3c(F)cc(F)cc3F)ccc21 [Example 98, 1-(benzo[d]isoxazol-3-ylmethyl)-3,3-dimethyl-2-oxo-N-(2,4,6-trifluorobenzyl)indoline-6-carboxamide] |
|  |  | ≤ 1000 | 1000 to 10000 | ≤ 1000 | 1 to 10 | 1 to 10 | CC1(C)C(=O)N(Cc2ccc(F)cc2)c2cc(C(=O)NCc3c(F)cc(F)cc3F)ccc21 [Example 20, 1-(4-fluorobenzyl)-3,3-dimethyl-2-oxo-N-(2,4,6-trifluorobenzyl)indoline-6-carboxamide] |
|  |  | 1000 to 10000 | 1000 to 10000 | 1000 to 10000 | > 10 | > 10 | Cc1cc(CN2C(=O)C(C)(C)c3ccc(C(=O)NCc4c(F)cc(F)cc4F)cc32)no1 [Example 70, 3,3-dimethyl-1-((5-methylisoxazol-3-yl)methyl)-2-oxo-N-(2,4,6-trifluorobenzyl)indoline-6-carboxamide] |
|  |  | 1000 to 10000 | 1000 to 10000 | 1000 to 10000 | > 10 | > 10 | CCC1(OC)C(=O)N(Cc2c(F)cccc2Cl)c2cc(C(=O)NCc3c(F)cc(F)cc3F)ccc21 (centres unmarked) [Example 161, 1-(2-chloro-6-fluorobenzyl)-3-ethyl-3-methoxy-2-oxo-N-(2,4,6-trifluorobenzyl)indoline-6-carboxamide] |
|  |  | ≤ 1000 | ≤ 1000 | ≤ 1000 | 1 to 10 | 1 to 10 | Cc1nn(C)c(CN2C(=O)C(C)(C)c3ccc(C(=O)NCc4cc5cc(F)ccc5o4)cc32)c1F [Example 115, 1-((4-fluoro-1,3-dimethyl-1H-pyrazol-5-yl)methyl)-N-((5-fluorobenzofuran-2-yl)methyl)-3,3-dimethyl-2-oxoindoline-6-carboxamide] |
|  |  | ≤ 1000 | ≤ 1000 | ≤ 1000 | 1 to 10 | 1 to 10 | CC1(C)C(=O)N(Cc2c(F)cccc2Cl)c2cc(C(=O)NCc3ccc(F)cc3F)ccc21 [Example 26, 1-(2-chloro-6-fluorobenzyl)-N-(2,4-difluorobenzyl)-3,3-dimethyl-2-oxoindoline-6-carboxamide] |
|  |  | ≤ 1000 | ≤ 1000 | ≤ 1000 | 1 to 10 | 1 to 10 | CC1(C)C(=O)N(Cc2c(F)cccc2OC(F)F)c2cc(C(=O)NCc3c(F)cc(F)cc3F)ccc21 [Example 111, 1-(2-(difluoromethoxy)-6-fluorobenzyl)-3,3-dimethyl-2-oxo-N-(2,4,6-trifluorobenzyl)indoline-6-carboxamide] |
|  |  | ≤ 1000 | 1000 to 10000 | 1000 to 10000 | > 10 | > 10 | CC(C)C1(Cl)C(=O)N(Cc2c(F)cccc2Cl)c2cc(C(=O)NCc3c(F)cc(F)cc3F)ccc21 (centres unmarked) [Example 157, 3-chloro-1-(2-chloro-6-fluorobenzyl)-3-isopropyl-2-oxo-N-(2,4,6-trifluorobenzyl)indoline-6-carboxamide] |
|  |  | ≤ 1000 | 1000 to 10000 | 1000 to 10000 | > 10 | > 10 | CC1(C)C(=O)N(Cc2cc(F)cc(F)c2)c2nc(C(=O)NCc3ccc(F)cc3)ccc21 [Example 189, 1-(3,5-difluorobenzyl)-N-(4-fluorobenzyl)-3,3-dimethyl-2-oxo-2,3-dihydro-1H-pyrrolo[2,3-b]pyridine-6-carboxamide] |
|  |  | ≤ 1000 | 1000 to 10000 | 1000 to 10000 | > 10 | 1 to 10 | CC1(N=[N+]=[N-])C(=O)N(Cc2c(F)cccc2Cl)c2cc(C(=O)NCc3c(F)cc(F)cc3F)ccc21 (centres unmarked) [Example 153, 3-azido-1(2-chloro-6-fluorobenzyl)-3-methyl-2-oxo-N-(2,4,6-trifluorobenzyl)indoline-6-carboxamide] |
|  |  | 1000 to 10000 | 1000 to 10000 | 1000 to 10000 | > 10 | > 10 | CC1(C)C(=O)N(Cc2cc(F)cc(F)c2)c2nc(C(=O)NCc3cc4ccccc4o3)ccc21 [Example 182, N-(benzofuran-2-ylmethyl)-1-(3,5-difluorobenzyl)-3,3-dimethyl-2-oxo-2,3-dihydro-1H-pyrrolo[2,3-b]pyridine-6-carboxamide] |
| > 10 | > 10 |  |  |  |  |  | CC1(C#N)C(=O)N(Cc2cc(F)cc(F)c2)c2cc(C(=O)NCc3c(F)cc(F)cc3F)ccc21 (centres unmarked) [Example 168, 3-cyano-1-(3,5-difluorobenzyl)-3-methyl-2-oxo-N-(2,4,6-trifluorobenzyl)indoline-6-carboxamide] |
| 1 to 10 | 1 to 10 |  |  |  |  |  | CC1(C#N)C(=O)N(Cc2cc(F)cc(F)c2)c2cc(C(=O)NCc3c(F)cc(F)cc3F)ccc21 (centres unmarked) [Example 163, 3-cyano-1-(3,5-difluorobenzyl)-3-methyl-2-oxo-N-(2,4,6-trifluorobenzyl)indoline-6-carboxamide] |
